Target: Btk (Homo sapiens (Human), UniProt Q06187)
Assay: Bruton's Tyrosine Kinase (Btk) inhibition assay (FRET BTK)
Type: biochemical
Conditions: not given

Btk, sequence (Q06187 whole entry): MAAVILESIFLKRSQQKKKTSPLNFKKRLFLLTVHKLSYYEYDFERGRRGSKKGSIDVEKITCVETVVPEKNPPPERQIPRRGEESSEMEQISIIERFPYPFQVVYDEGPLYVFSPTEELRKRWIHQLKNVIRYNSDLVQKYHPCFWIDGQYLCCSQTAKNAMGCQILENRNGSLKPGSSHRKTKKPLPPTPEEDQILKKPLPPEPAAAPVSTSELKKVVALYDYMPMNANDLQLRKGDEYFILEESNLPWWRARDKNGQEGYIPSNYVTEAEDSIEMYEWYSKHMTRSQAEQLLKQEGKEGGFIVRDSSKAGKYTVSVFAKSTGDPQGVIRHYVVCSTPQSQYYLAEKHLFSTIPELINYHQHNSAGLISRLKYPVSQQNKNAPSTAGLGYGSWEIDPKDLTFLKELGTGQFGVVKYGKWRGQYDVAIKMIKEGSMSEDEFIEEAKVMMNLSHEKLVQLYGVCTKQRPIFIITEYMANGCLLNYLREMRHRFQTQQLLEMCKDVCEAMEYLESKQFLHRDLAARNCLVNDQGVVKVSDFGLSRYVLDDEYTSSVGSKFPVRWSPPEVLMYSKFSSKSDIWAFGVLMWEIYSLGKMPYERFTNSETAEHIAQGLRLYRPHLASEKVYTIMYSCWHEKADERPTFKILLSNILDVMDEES

SMILES	IC50 [pM]
Cc1cc(Nc2nn(-c3cccc(-n4ncc5cc(C(C)(C)C)cc(F)c5c4=O)c3CO)cc2C(N)=O)nn1C [Compound I-31, 1-[3-(6-tert-Butyl-8-fluoro-1-oxo-1H-phthalazin-2-yl)-2-hydroxymethyl-phenyl]-3-(1,5-dimethyl-1H-pyrazol-3-ylamino)-1H-pyrazole-4-carboxylic acid amide]	290
CCOc1ccc(-c2ccc3c(C(N)=O)cn(-c4cccc(-n5ncc6cc(C(C)(C)C)cc(F)c6c5=O)c4CO)c3n2)cn1 [Compound I-45, 1-[3-(6-tert-Butyl-8-fluoro-1-oxo-1H-phthalazin-2-yl)-2-hydroxymethyl-phenyl]-6-(6-ethoxy-pyridin-3-yl)-1H-pyrrolo[2,3-b]pyridine-3-carboxylic acid amide]	11000
CC(C)(C)c1cc(F)c2c(=O)n(-c3cccc(-n4cc(C(N)=O)c(Nc5ccc(Cl)cn5)n4)c3CO)ncc2c1 [Compound I-23, 1-[3-(6-tert-Butyl-8-fluoro-1-oxo-1H-phthalazin-2-yl)-2-hydroxymethyl-phenyl]-3-(5-chloro-pyridin-2-ylamino)-1H-pyrazole-4-carboxylic acid amide]	290
CC(C)(C)c1cc(F)c2c(=O)n(-c3cccc(-n4cc(C(N)=O)c5cncnc54)c3CO)ncc2c1 [Compound I-42, 7-[3-(6-tert-Butyl-8-fluoro-1-oxo-1H-phthalazin-2-yl)-2-hydroxymethyl-phenyl]-7H-pyrrolo[2,3-d]pyrimidine-5-carboxylic acid amide]	7320
CC(C)(C)c1cc(F)c2c(=O)n(-c3cccc(-n4cc(C(N)=O)c(Nc5ccc(C(F)(F)F)cn5)n4)c3CO)ncc2c1 [Compound I-32, 1-[3-(6-tert-Butyl-8-fluoro-1-oxo-1H-phthalazin-2-yl)-2-hydroxymethyl-phenyl]-3-(5-trifluoromethyl-pyridin-2-ylamino)-1H-pyrazole-4-carboxylic acid amide]	570
CN1CCN(c2ccc3c(C(N)=O)cn(-c4cccc(-n5ncc6cc(C(C)(C)C)cc(F)c6c5=O)c4CO)c3n2)CC1 [Compound I-43, 1-[3-(6-tert-Butyl-8-fluoro-1-oxo-1H-phthalazin-2-yl)-2-hydroxymethyl-phenyl]-6-(4-methyl-piperazin-1-yl)-1H-pyrrolo[2,3-b]pyridine-3-carboxylic acid amide]	2830
CC(C)(C)c1cc(F)c2c(=O)n(-c3cccc(-n4cc(C(N)=O)cn4)c3CO)ncc2c1 [Compound I-41, 1-[3-(6-tert-Butyl-8-fluoro-1-oxo-1H-phthalazin-2-yl)-2-hydroxymethyl-phenyl]-1H-pyrazole-4-carboxylic acid amide]	268000
CC(C)(C)c1ccc2c(=O)n(-c3cccc(-n4cc(C(N)=O)c(Nc5ccccn5)n4)c3CO)ncc2c1 [Compound I-54, 1-[3-(6-tert-Butyl-1-oxo-1H-phthalazin-2-yl)-2-hydroxymethyl-phenyl]-3-(pyridin-2-ylamino)-1H-pyrazole-4-carboxylic acid amide]	950
Cc1cc(Nc2nn(-c3cccc(-n4ncc5cc(C(C)(C)C)ccc5c4=O)c3CO)cc2C(N)=O)nn1C [Compound I-34, 1-[3-(6-tert-Butyl-1-oxo-1H-phthalazin-2-yl)-2-hydroxymethyl-phenyl]-3-(1,5-dimethyl-1H-pyrazol-3-ylamino)-1H-pyrazole-4-carboxylic acid amide]	510
Cn1ccc(Nc2nn(-c3cccc(-n4ncc5cc(C(C)(C)C)cc(F)c5c4=O)c3CO)cc2C(N)=O)n1 [Compound I-28, 1-[3-(6-tert-Butyl-8-fluoro-1-oxo-1H-phthalazin-2-yl)-2-hydroxymethyl-phenyl]-3-(1-methyl-1H-pyrazol-3-ylamino)-1H-pyrazole-4-carboxylic acid amide]	220

Continued, values first:

IC50 [pM]	SMILES
13900	CC(C)(C)c1cc(F)c2c(=O)n(-c3cccc(-n4cc(C(N)=O)c5ccc(C(O)CO)nc54)c3CO)ncc2c1 (stereo not shown) [Compound I-49, 1-[3-(6-tert-Butyl-8-fluoro-1-oxo-1H-phthalazin-2-yl)-2-hydroxymethyl-phenyl]-6-(1,2-dihydroxy-ethyl)-1H-pyrrolo[2,3-b]pyridine-3-carboxylic acid amide]
12700	CC(C)(C)c1cc(F)c2c(=O)n(-c3cccc(-n4cc(C(N)=O)c5ccc(N6CCS(=O)(=O)CC6)nc54)c3CO)ncc2c1 [Compound I-50, 1-[3-(6-tert-Butyl-8-fluoro-1-oxo-1H-phthalazin-2-yl)-2-hydroxymethyl-phenyl]-6-(1,1-dioxo-1λ^6-thiomorpholin-4-yl)-1H-pyrrolo[2,3-b]pyridine-3-carboxylic acid amide]
14300	CC(C)(C)c1cc(F)c2c(=O)n(-c3cccc(-n4cc(C(N)=O)c5ccc(-c6ccccc6F)nc54)c3CO)ncc2c1 [Compound I-46, 1-[3-(6-tert-Butyl-8-fluoro-1-oxo-1H-phthalazin-2-yl)-2-hydroxymethyl-phenyl]-6-(2-fluoro-phenyl)-1H-pyrrolo[2,3-b]pyridine-3-carboxylic acid amide]
390	CN(C)Cc1ccc(Nc2nn(-c3cccc(-n4ncc5cc(C(C)(C)C)ccc5c4=O)c3CO)cc2C(N)=O)nc1 [Compound I-55, 1-[3-(6-tert-Butyl-1-oxo-1H-phthalazin-2-yl)-2-hydroxymethyl-phenyl]-3-(5-dimethylaminomethyl-pyridin-2-ylamino)-1H-pyrazole-4-carboxylic acid amide]
120	CC(=O)c1ccc(Nc2nn(-c3cccc(-n4ncc5cc(C(C)(C)C)ccc5c4=O)c3CO)cc2C(N)=O)cc1 [Compound I-53, 3-(4-Acetyl-phenylamino)-1-[3-(6-tert-butyl-1-oxo-1H-phthalazin-2-yl)-2-hydroxymethyl-phenyl]-1H-pyrazole-4-carboxylic acid amide]
240	Cc1ccc(Nc2nn(-c3cccc(-n4ncc5cc(C(C)(C)C)cc(F)c5c4=O)c3CO)cc2C(N)=O)nc1 [Compound I-33, 1-[3-(6-tert-Butyl-8-fluoro-1-oxo-1H-phthalazin-2-yl)-2-hydroxymethyl-phenyl]-3-(5-methyl-pyridin-2-ylamino)-1H-pyrazole-4-carboxylic acid amide]
10300	CC(C)(C)c1cc(F)c2c(=O)n(-c3cccc(-n4cc(C(N)=O)c5ccc(N6CCOCC6)nc54)c3CO)ncc2c1 [Compound I-44, 1-[3-(6-tert-Butyl-8-fluoro-1-oxo-1H-phthalazin-2-yl)-2-hydroxymethyl-phenyl]-6-morpholin-4-yl-1H-pyrrolo[2,3-b]pyridine-3-carboxylic acid amide]
360	CC(C)(C)c1cc(F)c2c(=O)n(-c3cccc(-n4cc(C(N)=O)c(Nc5ccccn5)n4)c3CO)ncc2c1 [Compound I-26, 1-[3-(6-tert-Butyl-8-fluoro-1-oxo-1H-phthalazin-2-yl)-2-hydroxymethyl-phenyl]-3-(pyridin-2-ylamino)-1H-pyrazole-4-carboxylic acid amide]
830	CC(C)(C)c1ccc2c(=O)n(-c3cccc(-n4cc(C(N)=O)c(Nc5cnccn5)n4)c3CO)ncc2c1 [Compound I-36, 1-[3-(6-tert-Butyl-1-oxo-1H-phthalazin-2-yl)-2-hydroxymethyl-phenyl]-3-(pyrazin-2-ylamino)-1H-pyrazole-4-carboxylic acid amide]
170	CC(C)(C)c1cc(F)c2c(=O)n(-c3cccc(-n4cc(C(N)=O)c(Nc5ccc(S(C)(=O)=O)cn5)n4)c3CO)ncc2c1 [Compound I-38, 1-[3-(6-tert-Butyl-8-fluoro-1-oxo-1H-phthalazin-2-yl)-2-hydroxymethyl-phenyl]-3-(5-methanesulfonyl-pyridin-2-ylamino)-1H-pyrazole-4-carboxylic acid amide]
240	CC(C)(C)c1cc(F)c2c(=O)n(-c3cccc(-n4cc(C(N)=O)c(Nc5ccc(F)cn5)n4)c3CO)ncc2c1 [Compound I-30, 1-[3-(6-tert-Butyl-8-fluoro-1-oxo-1H-phthalazin-2-yl)-2-hydroxymethyl-phenyl]-3-(5-fluoro-pyridin-2-ylamino)-1H-pyrazole-4-carboxylic acid amide]

System: B cells in human whole blood (CD69 expression)
Assay: Inhibition of B cell activation in whole blood measured by CD69 expression
Type: cell-based
Conditions: anti-IgM stimulation, CD69-positive CD20-positive cells
Description: Inhibition of B Cell Activation in Whole Blood Measured by CD69 Expression
A procedure to test the ability of Btk inhibitors to suppress B cell receptor-mediated activation of B cells in human blood is as follows:
Human whole blood (HWB) is obtained from healthy volunteers, with the following restrictions: 24 hr drug-free, non-smokers. Blood is collected by venipuncture into Vacutainer tubes anticoagulated with sodium heparin. Test compounds are diluted to ten times the desired starting drug concentration in PBS (20×), followed by three-fold serial dilutions in 10% DMSO in PBS to produce a nine point dose-response curve. 5.5 μl of each compound dilution is added in duplicate to a 2 ml 96-well V bottom plate (Analytical Sales and Services, #59623-23); 5.5 μl of 10% DMSO in PBS is added to control and no-stimulus wells. HWB (100 μl) is added to each well, and after mixing the plates are incubated at 37 C, 5% CO2, 100% humidity for 30 minutes. Goat F(ab′)2 anti-human IgM (Southern Biotech, #2022-14) (10 μl of a 500 μg/ml solution, 50 μg/ml final concentration) is added to each well (except the no-stimulus wells) with mixing and the plates are incubated for an additional 20 hours.
At the end of the 20 hour incubation, samples are incubated with florescent-probe-labeled anti-bodies (15 μl PE Mouse anti-Human CD20, BD Pharmingen, #555623, and/or 20 ul APC Mouse anti-Human CD69, BD Pharmingen #555533) for 30 minutes, at 37 C, 5% CO2, 100% humidity. Included are induced control, unstained and single stains for compensation adjustments and initial voltage settings. Samples are then lysed with 1 ml of 1× Pharmingen Lyse Buffer (BD Pharmingen #555899), and plates are centrifuged at 1800 rpm for 5 minutes. Supernatants are removed via suction and the remaining pellets are lysed again with another 1 ml of 1× Pharmingen Lyse Buffer, and plates are spun down as before. Supernatants are aspirated and remaining pellets are washed in FACs buffer (PBS+1% FBS). After a final spin, the supernantants are removed and pellets are resuspended in 180 μl of FACs buffer. Samples are transferred to a 96 well plate suitable to be run on the HTS 96 well system on the BD LSR II flow cytometer.
Using appropriate excitation and emission wavelengths for the fluorophores used, data are acquired and percent positive cell values are obtained using Cell Quest Software. Results are initially analyzed by FACS analysis software (Flow Jo). […] The IC50 values are calculated using XLfit software version 3, equation 201.

IC50 [pM]	SMILES
10000	CC(C)(C)c1cc(F)c2c(=O)n(-c3cccc(-n4cc(C(N)=O)c(Nc5ccc(C(=O)N6CCOCC6)cc5)n4)c3CO)ncc2c1 [Compound I-20, 1-[3-(6-tert-Butyl-8-fluoro-1-oxo-1H-phthalazin-2-yl)-2-hydroxymethyl-phenyl]-3-[4-(morpholine-4-carbonyl)-phenylamino]-1H-pyrazole-4-carboxylic acid amide]

Reference: patent US8729078B2, “Inhibitors of bruton's tyrosine kinase” (Hoffmann-La Roche Inc., priority 2011, dated 2014)
